In the supplement of paper PMC5662764:
± gives the standard deviation of the averaged measurements.

Key:
Assay in all cases: normalised growth rate inhibition (GR value) relative to DMSO control (GR (1 = untreated growth, 0 = cytostasis, <0 = cytotoxic)); higher = less growth inhibition
Conditions in all cases: 72 h
MDAMB231 = test system: MDAMB231
Experimental: (§1)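 Breast cancer cell lines (BT-20, Hs 578T, MCF 10A, MCF7, MDA-MB-231, SK-BR-3) were plated in 384-well plates and treated 24 h later with drugs at six concentrations (0.04-10 µM). Viable cells were counted by Hoechst/dead-cell-stain imaging at 0 and 72 h. Counts were normalised to DMSO controls on the same plate to give the relative cell count and the growth-rate inhibition (GR) value; technical plate triplicates were averaged for each biological replicate.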

MCF7 = test system: MCF7
Experimental: as §1

SKBR3 = test system: SKBR3
Experimental: as §1

HS578T = test system: HS578T
Experimental: as §1

BT20 = test system: BT20
Experimental: as §1

MCF10A = test system: MCF10A
Experimental: as §1

Structure (SMILES) | normalised growth rate inhibition (MDAMB231; 0.04 µM) | normalised growth rate inhibition (MDAMB231; 0.12 µM) | normalised growth rate inhibition (MDAMB231; 0.37 µM) | normalised growth rate inhibition (MDAMB231; 1.11 µM) | normalised growth rate inhibition (MDAMB231; 3.33 µM) | normalised growth rate inhibition (MDAMB231; 10 µM) | normalised growth rate inhibition (MCF7; 0.04 µM) | normalised growth rate inhibition (MCF7; 0.12 µM) | normalised growth rate inhibition (MCF7; 0.37 µM) | normalised growth rate inhibition (MCF7; 1.11 µM) | normalised growth rate inhibition (MCF7; 3.33 µM) | normalised growth rate inhibition (MCF7; 10 µM) | normalised growth rate inhibition (SKBR3; 0.04 µM) | normalised growth rate inhibition (SKBR3; 0.12 µM) | normalised growth rate inhibition (SKBR3; 0.37 µM) | normalised growth rate inhibition (SKBR3; 1.11 µM) | normalised growth rate inhibition (SKBR3; 3.33 µM) | normalised growth rate inhibition (SKBR3; 10 µM) | normalised growth rate inhibition (HS578T; 0.04 µM) | normalised growth rate inhibition (HS578T; 0.12 µM) | normalised growth rate inhibition (HS578T; 0.37 µM) | normalised growth rate inhibition (HS578T; 1.11 µM) | normalised growth rate inhibition (HS578T; 3.33 µM) | normalised growth rate inhibition (HS578T; 10 µM) | normalised growth rate inhibition (BT20; 0.04 µM) | normalised growth rate inhibition (BT20; 0.12 µM) | normalised growth rate inhibition (BT20; 0.37 µM) | normalised growth rate inhibition (BT20; 1.11 µM) | normalised growth rate inhibition (BT20; 3.33 µM) | normalised growth rate inhibition (BT20; 10 µM) | normalised growth rate inhibition (MCF10A; 0.04 µM) | normalised growth rate inhibition (MCF10A; 0.12 µM) | normalised growth rate inhibition (MCF10A; 0.37 µM) | normalised growth rate inhibition (MCF10A; 1.11 µM) | normalised growth rate inhibition (MCF10A; 3.33 µM) | normalised growth rate inhibition (MCF10A; 10 µM)
CC(=O)Nc1nc(C)c(-c2ccc(Cl)c(S(=O)(=O)NCCO)c2)s1 | 1.01 ± 0.055 | 1.01 ± 0.061 | 0.999 ± 0.1 | 0.919 ± 0.061 | 0.78 ± 0.036 | 0.272 ± 0.021 | 1.08 ± 0.094 | 1.03 ± 0.14 | 0.994 ± 0.22 | 0.88 ± 0.28 | 0.441 ± 0.11 | 0.0722 ± 0.078 | 1.09 ± 0.03 | 1.09 ± 0.045 | 1.01 ± 0.094 | 0.916 ± 0.12 | 0.597 ± 0.037 | 0.00524 ± 0.12 | 1.013 ± 0.0069 | 1.01 ± 0.02 | 0.99 ± 0.056 | 0.929 ± 0.093 | 0.585 ± 0.16 | 0.162 ± 0.19 | 1.024 ± 0.0077 | 1.02 ± 0.03 | 1.05 ± 0.034 | 0.973 ± 0.068 | 0.746 ± 0.033 | 0.0954 ± 0.044 | 0.9973 ± 0.0055 | 0.995 ± 0.02 | 0.993 ± 0.029 | 0.959 ± 0.026 | 0.831 ± 0.094 | 0.502 ± 0.077
CCn1c(-c2nonc2N)nc2c(C#CC(C)(C)O)ncc(OC[C@H]3CCCNC3)c21 | 0.86 ± 0.088 | 0.904 ± 0.021 | 0.906 ± 0.021 | 0.94 ± 0.026 | 1.01 ± 0.032 | 0.869 ± 0.08 | 0.6 ± 0.073 | 0.499 ± 0.17 | 0.42 ± 0.13 | 0.374 ± 0.096 | 0.361 ± 0.09 | 0.312 ± 0.09 | 0.578 ± 0.064 | 0.555 ± 0.035 | 0.556 ± 0.038 | 0.571 ± 0.039 | 0.62 ± 0.032 | 0.658 ± 0.065 | 0.846 ± 0.058 | 0.798 ± 0.075 | 0.726 ± 0.084 | 0.713 ± 0.11 | 0.717 ± 0.13 | 0.728 ± 0.12 | 0.8181 ± 0.0049 | 0.779 ± 0.062 | 0.636 ± 0.11 | 0.521 ± 0.12 | 0.453 ± 0.062 | 0.371 ± 0.047 | 0.989 ± 0.029 | 0.976 ± 0.024 | 0.937 ± 0.039 | 0.873 ± 0.034 | 0.872 ± 0.039 | 0.891 ± 0.042
CN(c1ccccc1CNc1nc(Nc2ccc3c(c2)CC(=O)N3)ncc1C(F)(F)F)S(C)(=O)=O | 0.913 ± 0.058 | 0.78 ± 0.082 | 0.49 ± 0.2 | 0.241 ± 0.13 | 0.11 ± 0.13 | -0.197 ± 0.22 | 0.742 ± 0.065 | 0.471 ± 0.1 | 0.184 ± 0.078 | 0.0628 ± 0.026 | -0.0235 ± 0.037 | -0.28 ± 0.03 | 1.04 ± 0.024 | 0.653 ± 0.081 | 0.306 ± 0.017 | 0.0323 ± 0.071 | -0.0178 ± 0.071 | -0.141 ± 0.18 | 0.761 ± 0.021 | 0.694 ± 0.042 | 0.537 ± 0.063 | 0.27 ± 0.068 | 0.181 ± 0.076 | -0.0957 ± 0.088 | 0.902 ± 0.043 | 0.763 ± 0.035 | 0.414 ± 0.12 | 0.121 ± 0.12 | 0.0389 ± 0.12 | -0.19 ± 0.21 | 0.744 ± 0.029 | 0.501 ± 0.056 | 0.233 ± 0.087 | 0.106 ± 0.019 | 0.0578 ± 0.032 | -0.154 ± 0.16
Cc1[nH]c(/C=C2\C(=O)Nc3ccc(S(=O)(=O)Cc4c(Cl)cccc4Cl)cc32)c(C)c1C(=O)N1CCC[C@@H]1CN1CCCC1 | 1.03 ± 0.045 | 1.02 ± 0.069 | 1.02 ± 0.043 | 0.997 ± 0.053 | 0.94 ± 0.023 | -0.343 ± 0.3 | 1.06 ± 0.012 | 1.06 ± 0.073 | 1.05 ± 0.051 | 1.01 ± 0.059 | 0.923 ± 0.052 | 0.665 ± 0.17 | 1.04 ± 0.071 | 1.06 ± 0.052 | 1.07 ± 0.087 | 1.06 ± 0.098 | 0.956 ± 0.047 | 0.012 ± 0.5 | 1 ± 0.028 | 1.002 ± 0.003 | 1 ± 0.011 | 0.96 ± 0.032 | 0.954 ± 0.018 | -0.131 ± 0.58 | 1.017 ± 0.0089 | 1.01 ± 0.052 | 1.003 ± 0.0079 | 0.976 ± 0.042 | 0.973 ± 0.035 | 0.22 ± 0.42 | 0.991 ± 0.01 | 0.9827 ± 0.0045 | 0.9763 ± 0.0045 | 0.967 ± 0.012 | 0.9647 ± 0.0068 | 0.544 ± 0.43
Cc1[nH]c(/C=C2\C(=O)Nc3ccc(S(=O)(=O)N(C)c4cccc(Cl)c4)cc32)c(C)c1C(=O)N1CCN(C)CC1 | 1.07 ± 0.065 | 1.01 ± 0.04 | 1 ± 0.057 | 0.954 ± 0.058 | 0.847 ± 0.076 | 0.0987 ± 0.12 | 1.1 ± 0.046 | 1.05 ± 0.075 | 1.01 ± 0.073 | 0.858 ± 0.037 | 0.712 ± 0.045 | 0.0989 ± 0.046 | 1.14 ± 0.075 | 1.08 ± 0.085 | 1.11 ± 0.057 | 0.996 ± 0.058 | 0.923 ± 0.032 | 0.00625 ± 0.024 | 1.02 ± 0.014 | 0.992 ± 0.013 | 0.9492 ± 0.0032 | 0.883 ± 0.025 | 0.818 ± 0.03 | 0.159 ± 0.083 | 1.06 ± 0.037 | 1.04 ± 0.017 | 1 ± 0.029 | 0.922 ± 0.015 | 0.819 ± 0.011 | 0.0654 ± 0.082 | 1 ± 0.019 | 0.976 ± 0.02 | 0.941 ± 0.02 | 0.867 ± 0.01 | 0.742 ± 0.022 | 0.474 ± 0.032
Cc1ccc2nc(NCCN)c3ncc(C)n3c2c1 | 0.9929 ± 0.0097 | 0.936 ± 0.097 | 0.885 ± 0.06 | 0.652 ± 0.085 | 0.265 ± 0.11 | -0.253 ± 0.2 | 1.06 ± 0.058 | 1 ± 0.06 | 0.883 ± 0.058 | 0.502 ± 0.14 | 0.0136 ± 0.12 | -0.348 ± 0.14 | 1.05 ± 0.043 | 1.01 ± 0.088 | 0.929 ± 0.11 | 0.604 ± 0.066 | 0.192 ± 0.13 | -0.358 ± 0.23 | 1.01 ± 0.018 | 0.998 ± 0.018 | 0.99 ± 0.021 | 0.92 ± 0.049 | 0.723 ± 0.11 | -0.218 ± 0.13 | 1.01 ± 0.027 | 0.968 ± 0.055 | 0.952 ± 0.087 | 0.847 ± 0.12 | 0.778 ± 0.082 | -0.00828 ± 0.2 | 0.996 ± 0.011 | 0.979 ± 0.014 | 0.974 ± 0.016 | 0.967 ± 0.019 | 0.957 ± 0.018 | 0.85 ± 0.046
Cc1cnc(Nc2ccc(OCCN3CCCC3)cc2)nc1Nc1cccc(S(=O)(=O)NC(C)(C)C)c1 | 1.01 ± 0.074 | 0.934 ± 0.075 | 0.877 ± 0.11 | 0.643 ± 0.19 | 0.104 ± 0.19 | -0.306 ± 0.15 | 1.02 ± 0.06 | 0.96 ± 0.079 | 0.813 ± 0.11 | 0.545 ± 0.23 | 0.0996 ± 0.12 | -0.272 ± 0.058 | 1.07 ± 0.082 | 0.997 ± 0.013 | 0.907 ± 0.023 | 0.766 ± 0.065 | 0.501 ± 0.11 | -0.201 ± 0.095 | 1.01 ± 0.019 | 0.986 ± 0.019 | 0.887 ± 0.03 | 0.655 ± 0.066 | 0.258 ± 0.1 | -0.184 ± 0.17 | 1.04 ± 0.029 | 0.969 ± 0.0097 | 0.934 ± 0.022 | 0.823 ± 0.031 | 0.629 ± 0.024 | -0.141 ± 0.14 | 0.989 ± 0.019 | 0.964 ± 0.018 | 0.938 ± 0.028 | 0.876 ± 0.041 | 0.512 ± 0.19 | 0.0536 ± 0.034
